Assay results as given in paper PMC9127750, “Structure-based design of CDC42 effector interaction inhibitors for the treatment of cancer” (Cell reports, 2022).

Test system: WM3248 melanoma cells, 486 antibodies
Experiment: Reverse phase protein arrays (RPPA);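 for RPPA ACC1.R.C: ratio of treated to vehicle (0 µM) normalized linear protein signal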;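 for RPPA AMPK.a2 pS345.R.V: ratio of treated to vehicle (0 µM) normalized linear protein signal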;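 for RPPA AMPKa pT172.R.C: ratio of treated to vehicle (0 µM) normalized linear protein signal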;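 for RPPA ASNS.R.V: ratio of treated to vehicle (0 µM) normalized linear protein signal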
Type: cell-based, Human
Settings: 5 uM
Source text: Pellets were snap frozen in liquid nitrogen and shipped to MD Anderson Cancer Center core RPPA facility for RPPA analysis (Table S5). Three biological replicates for each sample were generated.
Nomenclatures on the RPPA heatmaps: name_of_antibody.species_of_antibody.status_of_antibody. V - antibody validated; C - validation of antibody in progress; Q - antibody nonspecific; E – under evaluation; antibodies raised in M - mouse, G - goat, R - rabbit, or T - rat.

SMILES: CN(C)c1cccc(Nc2cc(-c3ccccc3)nc(C3CCNCC3)n2)c1 [ARN22089, N1,N1-dimethyl-N3-(6-phenyl-2-(piperidin-4-yl)pyrimidin-4-yl)benzene-1,3-diamine]
- RPPA EMA.M.C (Average): 1.019
- RPPA ENY2.M.C (Average): 0.945
- RPPA ER.a.R.V (Average): 1.031
- RPPA ER.a_pS118.R.V (Average): 1.194
- RPPA ERCC1.R.C (Average): 0.974
- RPPA ERCC5.R.C (Average): 0.991
- RPPA ERRalpha.R.V (Average): 1.000
- RPPA EVI1.R.V (Average): 0.976
- RPPA Elk1_pS383.R.C (Average): 1.029
- RPPA Enolase.2.R.V (Average): 1.011
- RPPA EphA2.R.V (Average): 0.963
- RPPA EphA2_pS897.R.C (Average): 0.963
- RPPA Erk5.R.V (Average): 1.061
- RPPA Ets.1.R.V (Average): 0.910
- RPPA FABP5.R.C (Average): 0.807
- RPPA FAK.R.C (Average): 1.005
- RPPA FAK_pY397.R.V (Average): 1.015
- RPPA FANCD2.R.V (Average): 1.011
- RPPA FASN.R.V (Average): 0.986
- RPPA FGF.basic.R.C (Average): 0.990
- RPPA FN14.R.C (Average): 1.084
- RPPA FOXM1.R.V (Average): 1.005
- RPPA FTO.R.V (Average): 0.940
- RPPA Fibronectin.R.V (Average): 0.998
- RPPA FoxO3a_pS318_S321.R.C (Average): 0.976
- RPPA G6PD.R.V (Average): 0.982
- RPPA GATA3.M.V (Average): 0.852
- RPPA GATA6.R.V (Average): 0.999
- RPPA GCLC.R.C (Average): 1.009
- RPPA GCLM.R.V (Average): 0.973
- RPPA GCN5L2.R.V (Average): 1.028
- RPPA GGPS1.M.V (Average): 0.917
- RPPA GRB2.R.V (Average): 1.049
- RPPA GRB7.R.V (Average): 1.025
- RPPA GSK.3a.b.M.V (Average): 0.977
- RPPA GSK.3a.b_pS21_S9.R.V (Average): 0.983
- RPPA Gab2.R.V (Average): 1.019
- RPPA Gli1.R.C (Average): 1.002
- RPPA Gli3.R.C (Average): 0.909
- RPPA Glucocorticoid.Receptor.R.V (Average): 1.019
- RPPA Glutamate.D1.2.R.V (Average): 0.907
- RPPA Glutaminase.R.C (Average): 0.909
- RPPA Granzyme.B.R.V (Average): 1.098
- RPPA Grp75.R.C (Average): 0.983
- RPPA Gys_pS641.R.V (Average): 1.021
- RPPA H2AX_pS139.R.C (Average): 1.019
- RPPA H2AX_pS140.M.C (Average): 0.923
- RPPA HER2.M.V (Average): 0.962
- RPPA HER2_pY1248.R.V (Average): 1.025
- RPPA HER3_pY1289.R.C (Average): 0.983
- RPPA HES1.R.V (Average): 1.187
- RPPA X4E.BP1.R.V (Average): 1.200
- RPPA X4E.BP1_pS65.R.V (Average): 1.011
- RPPA X4E.BP1_pT37_T46.R.V (Average): 1.016
- RPPA X14.3.3.zeta.R.V (Average): 0.987
- RPPA X14.3.3βR.V (Average): 1.006
- RPPA X14.3.3εM.C (Average): 0.962
- RPPA X53BP1.R.V (Average): 0.978
- RPPA b.Actin.R.C (Average): 0.929
- RPPA b.Catenin.R.V (Average): 0.915
- RPPA b.Catenin_pT41_S45.R.V (Average): 1.024
- RPPA c.Abl.R.V (Average): 1.084
- RPPA c.Abl_pY412.R.C (Average): 1.056
- RPPA c.IAP2.R.C (Average): 1.003
- RPPA eEF2.R.C (Average): 0.913
- RPPA eEF2K.R.V (Average): 0.916
- RPPA eIF4E.R.V (Average): 1.118
- RPPA eIF4E_pS209.R.V (Average): 1.025
- RPPA eIF4G.R.C (Average): 1.047
- RPPA level HLA.DQA1.R.V (Average): 0.948
- RPPA level HLA.DR.DP.DQ.DX.R.C (Average): 0.928
- RPPA level HMHA1.R.V (Average): 1.133
- RPPA level HNRNPK.R.V (Average): 0.988
- RPPA level HSP27.M.C (Average): 1.008
- RPPA level HSP27_pS82.R.V (Average): 1.113
- RPPA level HSP60.R.V (Average): 1.017
- RPPA level HSP70.R.C (Average): 1.003
- RPPA level Hexokinase.I.R.C (Average): 0.909
- RPPA level Hexokinase.II.R.V (Average): 0.992
- RPPA level Hif.1αR.C (Average): 1.051
- RPPA level Histone.H3.R.V (Average): 0.963
- RPPA level Histone.H3_pS10.R.V (Average): 0.786
- RPPA level IGF1R_pY1135_Y1136.R.V (Average): 1.035
- RPPA level IGFBP2.R.V (Average): 0.875
- RPPA level IGFBP3.M.V (Average): 0.957
- RPPA level IGFRb.R.C (Average): 1.062
- RPPA level IL.6.R.C (Average): 1.050
- RPPA level IMP3.R.C (Average): 0.997
- RPPA level IR.b.R.C (Average): 1.131
- RPPA level IRF.1.R.V (Average): 1.000
- RPPA level IRF.3.R.V (Average): 1.007
- RPPA level IRS1.R.V (Average): 1.078
- RPPA level IRS2.R.C (Average): 0.971
- RPPA level JAB1.M.C (Average): 0.973
- RPPA level JNK2.R.V (Average): 0.889
- RPPA level JNK_pT183_Y185.R.C (Average): 1.026
- RPPA level Jak2.R.V (Average): 1.011
- RPPA level KAP1.R.V (Average): 0.915
- RPPA level KEAP1.R.V (Average): 0.914
- RPPA level LC3A.B.R.C (Average): 0.914
- RPPA level LCN2.R.V (Average): 1.165
- RPPA level LDHA.R.C (Average): 0.789
- RPPA level LRP6_pS1490.R.V (Average): 1.065
- RPPA level Lasu1.R.V (Average): 0.902
- RPPA level Lck.R.V (Average): 0.925
- RPPA level Lyn.R.V (Average): 0.878
- RPPA level MACC1.R.V (Average): 1.021
- RPPA level MAPK_pT202_Y204.R.C (Average): 1.079
- RPPA level MCT4.R.V (Average): 0.958
- RPPA level MDM2_pS166.R.V (Average): 0.899
- RPPA level MEK1.R.V (Average): 1.584
- RPPA level MEK1_pS217_S221.R.V (Average): 1.125
- RPPA level MERIT40.R.C (Average): 0.975
- RPPA level METTL3.R.V (Average): 0.920
- RPPA level MIF.R.C (Average): 1.010
- RPPA level MIG6.R.V (Average): 1.024
- RPPA level MITF.R.V (Average): 0.967
- RPPA level MLH1.M.V (Average): 0.943
- RPPA level MLKL.R.V (Average): 0.967
- RPPA level MMP2.R.V (Average): 0.995
- RPPA level MMP14.R.V (Average): 0.964
- RPPA level MR1.M.C (Average): 1.033
- RPPA level MRAP.R.C (Average): 1.061
- RPPA level MSH2.R.C (Average): 0.932
- RPPA level MSH6.R.C (Average): 0.925
- RPPA level MSI2.R.C (Average): 1.004
- RPPA level MTCO1.M.V (Average): 0.944
- RPPA level MTSS1.M.C (Average): 0.998
- RPPA level Mcl.1.R.V (Average): 1.076
- RPPA level MelanA.R.C (Average): 1.025
- RPPA level Melanoma.gp100.R.C (Average): 1.061
- RPPA level Merlin.R.C (Average): 0.894
- RPPA level Midkine.R.V (Average): 1.001
- RPPA level Mitofusin.1.R.V (Average): 1.053
- RPPA level Mitofusin.2.R.V (Average): 1.013
- RPPA level mTOR.R.V (Average): 1.016
- RPPA level mTOR_pS2448.R.C (Average): 1.025
- c.Jun_pS73.R.V RPPA level (Average): 0.983
- c.Kit.R.V RPPA level (Average): 0.895
- c.Met_pY1234_Y1235.R.V RPPA level (Average): 1.062
- c.Myc.R.C RPPA level (Average): 1.010
- cGAS.R.V RPPA level (Average): 1.020
- cdc2_pY15.R.C RPPA level (Average): 1.200
- RPPA A.Raf.R.V (B.1): 0.964
- RPPA A.Raf_pS299.R.C (B.1): 1.002
- RPPA ACC1.R.C (B.1): 1.160
- RPPA ACC_pS79.R.V (B.1): 0.974
- RPPA ACSL1.R.V (B.1): 1.052
- RPPA ACVRL1.R.C (B.1): 1.027
- RPPA ADAR1.M.V (B.1): 0.990
- RPPA ALKBH5.R.V (B.1): 1.061
- RPPA AMPK.a2_pS345.R.V (B.1): 0.982
- RPPA AMPKa.R.C (B.1): 1.010
- RPPA AMPKa_pT172.R.C (B.1): 0.679
- RPPA ARID1A.R.C (B.1): 0.955
- RPPA ASNS.R.V (B.1): 1.050
- RPPA ATM.R.V (B.1): 1.017
- RPPA ATM_pS1981.R.V (B.1): 1.023
- RPPA ATP5A.M.C (B.1): 1.186
- RPPA ATP5H.R.V (B.1): 1.203
- RPPA ATR.R.V (B.1): 1.027
- RPPA ATRX.R.C (B.1): 0.816
- RPPA ATR_pS428.R.C (B.1): 0.959
